One series addresses T1, human CYP3A4 (Homo sapiens, UniProt P08684).
T1 construct: purchased BD Biosciences
The experiment in a line: Inhibitory effect on CYP3A4 (Luciferin-IPA). The settings on record: test compound 10 μM, 30-minutes pre-incubation, Luciferin-IPA 3 μM. The format is in vitro ADME. The protocol:
Inhibitory Effect on CYP3A4
The dimethyl sulfoxide (DMSO) solution of the test compound with a concentration 1000 times higher than the evaluation concentration was prepared, and a reaction solution was prepared by diluting the solution. Enzyme reaction was performed by incubating in a potassium phosphate buffer solution (pH 7.4) containing 1 μM to 10 μM test compound, 3.2 mM magnesium chloride, 0.2 pmol human CYP3A4 (BD Biosciences), 0.5 mM reduced nicotinamide adenine dinucleotide phosphate (NADPH) and 3 μM Luciferin-IPA (Promega) at 37° C. for 10 minutes. The volume of the reaction solution was 50 μL/well. The 30-minutes pre-incubation group was incubated at 37° C. for 30 minutes before adding the substrate, the Luciferin-IPA solution (12.5 μL/well). At the end of the enzyme reaction, 50 μL/well of a Luciferin detection reagent (Promega) was added to the wells, and the plate was left at room temperature for 20 minutes. Then, the emission intensities were measured with Infinite M1000 (TECAN), and the enzyme activities (%) relative to the value of the group to which the test compound was not added. As a comparative example, aprepitant, which is an NK1 receptor antagonist, was tested in the same manner.
Test was measured by the above test method, and the results are shown in Table 9 when the concentration of the test compound was 10 μM. In the table, Ex. No. means the Example number, and Pre-incubation (30 min) (%) means the enzyme activities (%) of the 30-minutes pre-incubation groups using the test compounds.

For series [1], the target named is T2, human NK1 receptor (Homo sapiens, UniProt P25103).
T2 construct: expressed in transfected cells; host or cells: 293T cells (RIKEN), transient transfection with pcDNA3.1(-) plasmid
Briefly: Inhibitory effect on human NK1 receptor (substance P-induced increase in intracellular calcium concentration). It is filed as cell-based. The settings on record: HEK-293T; substance P 0.1 μM; compound 1 μM; human NK1 receptor-expressing 293T cells; vehicle = 100%; read-out: SPRR (%) (Substance P-Response Remaining, intracellular calcium concentration). The method, then:
Inhibitory Effect on Human NK1 Receptor
(1) Preparation of Human NK1 Receptor-Expressing Cells
Human NK1 receptor-expressing cells were prepared by the same methods as those described in 2-3 and 2-4 of Test Example 1.
(2) Study on Inhibitory Effect on Increase in Intracellular Calcium Concentration
The human NK1 receptor-expressing cells were washed with 300 μL/well of a washing solution (20 mM HEPES/Hanks Balanced Salt Solution (HBSS) pH7.3). A fluorescent calcium indicator (Fluo-4 Direct Calcium Assay Kit, Life Technologies, containing 0.42 mM probenecid and 0.1% bovine serum albumin, prepared according to the protocol of the product) was added to the wells at 150 μL/well, and the plate was incubated at 37° C. for 30 minutes in an incubator. Then, DMSO solutions of a test compound, which were prepared at an 80-time higher concentration using 100% dimethyl sulfoxide (DMSO), were added to the wells at 2.5 μL/well (final concentrations of 0.1, 1 and 10 μM), and the solutions were mixed. Then, the plate was further incubated at 37° C. for 30 minutes in an incubator. After 30 minutes, the intracellular calcium concentrations were measured immediately.
The intracellular calcium concentrations were each measured as a fluorescent signal using FDSS® 7000 (Hamamatsu Photonics). A substance P (Peptide Institute, Inc.) solution which was prepared at 0.4 μM or 4 μM using an assay buffer (20 mM HEPES/Hanks Balanced Salt Solution (HBSS) pH 7.3 containing 0.1% bovine serum albumin) was added automatically to each well at 50 μL/well (final concentration of 0.1 or 1 μM) 10 seconds after starting reading, and the fluorescent signal was measured up to 120 seconds.
The intracellular calcium concentration (%) of the cells to which a test compound was added was calculated by the equation below, where the fluorescent signal of the group to which the vehicle (DMSO) was added was regarded as 100%, and the fluorescent signal before the addition of substance P was regarded as 0%. Intracellular calcium concentration (%)=(Fluorescent signal of test compound addition group)/(Fluorescent signal of vehicle addition group)×100
The intracellular calcium concentration (%) calculated was regarded as the remaining agonist activity of substance P (Substance P-Response Remaining: SPRR). In the table, Ex. No. means the Example number. SPRR (%) means the value obtained when the concentration of substance P was 0.1 μM and the concentration of the compound was 1 μM.

In series [2] the target is T2, human NK1 receptor. The experiment in a line: Affinity for human NK1 receptor (125I-substance P receptor binding test, membrane fraction). The settings on record: membrane fraction of human NK1 receptor-expressing 293T cells, room temperature 60 minutes, read-out: pIC50 (inverse logarithm of the concentration required for 50% inhibition of 125I-substance P binding) (converted). The protocol: Affinity for Human NK1 Receptor
(3) Measurement of Binding Affinity to Human NK1 Receptor
(3-1) Preparation of Membrane Fraction from Human NK1 Receptor-Expressing Cells
Human NK1 receptor-expressing cells were prepared in a 175 cm^2 culture flask (Nippon Becton Dickinson). The formation of a complex of the human NK1 receptor expression plasmid and Lipofectamine 2000 was performed by calculating the culture area ratio and increasing the scale of the method described in the above 2-4 by the ratio. The human NK1 receptor-expressing cells were collected in a buffer solution for the membrane fraction preparation (50 mM Tris (Wako Pure Chemical), 120 mM sodium chloride (Wako Pure Chemical Industries), 5 mM potassium chloride (Wako Pure Chemical Industries), 1 mM ethylenediaminetetraacetic acid (Sigma), 0.002 mg/mL chymostatin (Peptide Institute), 0.04 mg/bacitracin (Wako Pure Chemical Industries), 0.005 mg/mL phosphoramidon (Peptide Institute) and 0.5 mM phenylmethylsulfonyl fluoride (Wako Pure Chemical Industries), pH7.4) and centrifuged at 1,880 g for 10 minutes, and the cell sediment was suspended in the buffer solution for the membrane fraction preparation. After freezing and thawing the cells once, the cells were homogenized using a Dounce-type homogenizer (cooled on ice, 1000 rpm, 20 times). The homogenized cell suspension was centrifuged at 20,000 rpm for 10 minutes, and the supernatant was removed to obtain cell sediment. The cell sediment was suspended again in the buffer solution for the membrane fraction preparation and homogenized using a Dounce-type homogenizer (cooled on ice, 1000 rpm, 30 times). The cell suspension was centrifuged at 20,000 rpm for 10 minutes, and the supernatant was removed to obtain cell sediment. The same homogenization and centrifugation were repeated again, and final cell sediment was obtained. The final cell sediment was suspended in a buffer solution for the receptor binding test (50 mM Tris (Wako Pure Chemical Industries), 3 mM manganese chloride (Wako Pure Chemical Industries), 0.002 mg/mL chymostatin (Peptide Institute), 0.04 mg/bacitracin (Wako Pure Chemical Industries) and 0.02% bovine serum albumin (Sigma), pH 7.4), and the protein concentration was measured using BCA Protein Assay Kit (Pierce).
(3-2) Receptor Binding Test
The buffer solution for the receptor binding test was dispensed to the wells of a 96-well assay plate (Greiner) at 22.5 μL/well. DMSO solutions of a test compound, which were prepared at an 80-time higher concentration using 100% dimethyl sulfoxide (DMSO), were added to the wells at 2.5 μL/well (final concentrations of 1 nM to 100 nM), and the solutions were mixed. As a radiolabeled ligand, ^125I-substance P (Substance P, [^125I]Tyr^8-, PerkinElmer) was used. ^125I-substance P was diluted with the buffer solution for the receptor binding test to a concentration resulting in […] and added to the 96-well assay plate, and the solutions were mixed. The membrane fraction prepared from the human NK1 receptor-expressing cells was diluted with the buffer solution for the receptor binding test to a concentration resulting in 8 to 10 μg/well, suspended until the suspension became in such a homogenous state that the suspension could flow through a 27G injection needle smoothly and then added to the 96-well assay plate at 150 μL/well. Then, the plate was incubated at room temperature for 60 minutes while shaking the plate. […]

T2 sequence (P25103 whole entry): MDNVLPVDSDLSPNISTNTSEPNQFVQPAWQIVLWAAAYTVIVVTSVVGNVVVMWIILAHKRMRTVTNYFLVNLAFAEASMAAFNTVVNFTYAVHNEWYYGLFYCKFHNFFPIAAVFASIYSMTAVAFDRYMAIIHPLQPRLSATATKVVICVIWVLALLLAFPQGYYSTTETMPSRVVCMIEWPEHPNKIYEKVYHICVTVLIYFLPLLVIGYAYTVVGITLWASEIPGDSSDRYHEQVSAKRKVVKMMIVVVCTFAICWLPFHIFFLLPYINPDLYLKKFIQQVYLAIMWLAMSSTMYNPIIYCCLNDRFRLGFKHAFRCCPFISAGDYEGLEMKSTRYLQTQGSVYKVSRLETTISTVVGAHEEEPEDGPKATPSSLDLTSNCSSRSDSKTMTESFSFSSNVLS
T1 sequence (P08684 whole entry): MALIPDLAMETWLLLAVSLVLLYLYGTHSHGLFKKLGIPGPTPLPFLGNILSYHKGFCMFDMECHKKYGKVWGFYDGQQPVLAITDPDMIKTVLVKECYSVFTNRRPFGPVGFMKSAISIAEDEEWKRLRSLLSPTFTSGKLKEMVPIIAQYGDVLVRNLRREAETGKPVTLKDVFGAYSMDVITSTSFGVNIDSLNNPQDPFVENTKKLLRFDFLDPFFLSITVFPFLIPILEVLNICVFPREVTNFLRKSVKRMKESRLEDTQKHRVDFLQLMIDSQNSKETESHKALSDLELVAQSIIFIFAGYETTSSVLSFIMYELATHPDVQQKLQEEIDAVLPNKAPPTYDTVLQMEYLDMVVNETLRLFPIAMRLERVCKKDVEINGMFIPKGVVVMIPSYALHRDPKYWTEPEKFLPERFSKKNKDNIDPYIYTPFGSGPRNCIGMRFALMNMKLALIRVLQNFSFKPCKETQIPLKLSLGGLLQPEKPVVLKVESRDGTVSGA

For the molecule `Cc1cc(F)ccc1[C@H]1CN(C[C@H]2CC[C@@H](CC(=O)O)CC2)CC[C@@H]1C(=O)N(C)[C@@H](C)c1cc(C(F)(F)F)cc(C(F)(F)F)c1` [Example 13, cis-{4-[(3S,4S)-4-{[(S)-1-(3,5-Bistrifluoromethylphenyl)ethyl]methylcarbamoyl}-3-(4-fluoro-2-methylphenyl)piperidin-1-ylmethyl]cyclohexyl}acetic acid], on human CYP3A4, the “Preincubation (30 min) (%) (enzyme activities relative to group without test compound)” value is 18%. For the same molecule, the remaining activity at 1 µM on human NK1 receptor [1] came to 4.1%. Further, the IC50 at human NK1 receptor [2] is 0.646 nM.
Regarding `Cc1cc(F)ccc1[C@H]1CN(C[C@H]2CC[C@H](CC(=O)O)CC2)CC[C@@H]1C(=O)N(C)[C@@H](C)c1cc(C(F)(F)F)cc(C(F)(F)F)c1` [Example 14, trans-{4-[(3 S,4S)-4-{[(S)-1-(3,5-Bistrifluoromethylphenyl)ethyl]methylcarbamoyl}-3-(4-fluoro-2-methylphenyl)piperidin-1-ylmethyl]cyclohexyl}lacetic acid], the “Preincubation (30 min) (%) (enzyme activities relative to group without test compound)” value at human CYP3A4 is recorded as 15%. Further, the remaining activity at 1 µM at human NK1 receptor [1] was 14%. Moreover, the IC50 on human NK1 receptor [2] was 1.35 nM.

Values taken from patent US10399949B2, “NK1 receptor antagonist” (KISSEI PHARMACEUTICAL CO., LTD., priority 2015, dated 2019).
